{"source": "patent US9113649B2", "about": "“Food additive comprising an amidase for detoxifying ochratoxin” (DuPont Nutrition Biosciences ApS, priority 2010, dated 2015)", "molecular_target": "Aspergillus niger amidase 2 sig (full length 480 aa, intracellular fraction, SEQ ID NO: 1) (Aspergillus niger, UniProt A2R2V4)", "sequence (A2R2V4 other isoform, or with tags, fused parts or gaps)": "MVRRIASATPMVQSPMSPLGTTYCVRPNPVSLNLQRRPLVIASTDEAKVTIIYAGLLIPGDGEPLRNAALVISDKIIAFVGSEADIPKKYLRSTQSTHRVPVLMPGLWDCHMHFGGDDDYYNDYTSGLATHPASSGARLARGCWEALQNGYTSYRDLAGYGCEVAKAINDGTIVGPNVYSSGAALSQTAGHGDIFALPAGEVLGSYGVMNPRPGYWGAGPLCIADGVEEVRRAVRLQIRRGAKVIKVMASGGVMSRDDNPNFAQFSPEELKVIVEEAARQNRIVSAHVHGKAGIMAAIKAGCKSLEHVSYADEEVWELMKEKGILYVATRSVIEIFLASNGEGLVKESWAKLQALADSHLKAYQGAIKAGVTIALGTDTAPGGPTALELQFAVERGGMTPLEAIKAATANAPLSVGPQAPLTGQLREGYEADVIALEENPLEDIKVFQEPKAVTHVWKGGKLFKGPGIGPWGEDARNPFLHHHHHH", "settings": "pH 7", "description": "The reaction contained 60 μl mops-NaOH (0.2M, pH7.0), 20 mM CaCl2, 20 mM EDTA, amidase 2 sig (0.46 μg protein) extracted from A. niger cell harboring the amidase gene, 2 μl 25 μg/ml OTA and water to a final volume of 120 μl. The reaction was performed at 37° C. for 30 min and stopped by adding 150 μl acetonitrile containing 0.2% acetic acid. OTA and its product OT-alpha (=ODα) were analyzed on RP-HPLC on C18 column with an injection of 5 μl. Positive control (PC) contained no additives other than the buffer the amidase and OTA. Blank contained only buffer and OTA.", "data": [{"smiles": "O=C(O)CN(CCN(CC(=O)O)CC(=O)O)CC(=O)O", "note": "[EDTA]", "values": [{"measurement": "inhibition of amidase 2 sig (OTA degradation)", "value": "no inhibition"}]}]}
